Experimental data: ChEMBL document CHEMBL5352480, “Discovery of potent 1,1-diarylthiogalactoside glycomimetic inhibitors of Pseudomonas aeruginosa LecA with antibiofilm properties” (Eur J Med Chem, 2023)

Key:
[1] = biological target: T1, PA-I galactophilic lectin (Pseudomonas aeruginosa (strain ATCC 15692 / PAO1 / 1C / PRS 101 / LMG12228), UniProt Q05097); assay: Binding affinity to Pseudomonas aeruginosa LecA expressed in Escherichia coli BL21 (DE3) cells assessed as dissociation constant by isothermal titration calorimetry
T1 sequence (Q05097 whole entry): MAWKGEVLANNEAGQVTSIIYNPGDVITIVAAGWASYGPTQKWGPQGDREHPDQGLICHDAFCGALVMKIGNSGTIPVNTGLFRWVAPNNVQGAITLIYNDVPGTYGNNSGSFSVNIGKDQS

[2] = biological target: T2, PA-I galactophilic lectin (Pseudomonas aeruginosa (strain ATCC 15692 / PAO1 / 1C / PRS 101 / LMG12228)) (UniProt Q05097); assay: Binding affinity to Pseudomonas aeruginosa LecA expressed in Escherichia coli BL21 (DE3) cells assessed as gibbs free energy change by isothermal titration calorimetry
T2 sequence (whole entry): T1 sequence (Q05097 whole entry)

[3] = biological target: T2, PA-I galactophilic lectin (Pseudomonas aeruginosa (strain ATCC 15692 / PAO1 / 1C / PRS 101 / LMG12228)); assay: Binding affinity to Pseudomonas aeruginosa LecA expressed in Escherichia coli BL21 (DE3) cells assessed as change in enthalpy by isothermal titration calorimetry
[4] = biological target: T2, PA-I galactophilic lectin (Pseudomonas aeruginosa (strain ATCC 15692 / PAO1 / 1C / PRS 101 / LMG12228)); assay: Binding affinity to Pseudomonas aeruginosa LecA expressed in Escherichia coli BL21 (DE3) cells assessed as change in entropy by isothermal titration calorimetry
[5] = biological target: T1, PA-I galactophilic lectin; assay: Binding affinity to Pseudomonas aeruginosa LecA
MRC5 [6] = assay: Cytotoxicity against human MRC5 cells assessed as cell viability at 2.5 mM measured after 24 hrs by MTT assay; settings: mrc5, 24 h, 2500 µM
Pseudomonas aeruginosa [7] = assay: Bactericidal activity against Pseudomonas aeruginosa PAO1; format: functional
MRC5 [8] = assay: Cytotoxicity against human MRC5 cells assessed as reduction in cell viability at upto 1.25 mM measured after 24 hrs by MTT assay; format: toxicity, cell-based; settings: mrc5, 24 h, 1250 µM
Pseudomonas aeruginosa [9] = assay: Antibiofilm activity against Pseudomonas aeruginosa PA01 (CIP 104116) assessed as inhibition of biofilm formation at 0.08 to 5 mM measured after 2 to 24 hrs relative to control; format: functional; parameters: scale not given: the % may be the effect or the level left; settings: dose 0.08-5 mM, time 2-24 hrs
Pseudomonas aeruginosa [10] = assay: Antibacterial activity against Pseudomonas aeruginosa PAO1; format: functional
MRC5 [11] = assay: Cytotoxicity against human MRC5 cells assessed as reduction in cell viability at 1.25 mM measured after 24 hrs by MTT assay; format: toxicity, cell-based; settings: mrc5, 24 h, 1250 µM
Pseudomonas aeruginosa [12] = assay: Antibiofilm activity against Pseudomonas aeruginosa PA01 (CIP 104116) assessed as inhibition of biofilm formation measured after 2 to 24 hrs; format: functional, organism-based; settings: dose 0.08-5 mM, time 2-24 hrs
MRC5 [13] = assay: Cytotoxicity against human MRC5 cells assessed as cell viability at 5 mM measured after 24 hrs by MTT assay; settings: mrc5, 24 h, 5000 µM
[14] = biological target: T1, PA-I galactophilic lectin; assay: Binding affinity to Pseudomonas aeruginosa LecA assessed as dissociation constant by isothermal titration calorimetry
Pseudomonas aeruginosa [15] = assay: Antibiofilm activity against Pseudomonas aeruginosa PA01 (CIP 104116) assessed as log reduction of biofilm formation at 5 mM measured after 2 to 24 hrs; format: functional; settings: time 2-24 hrs
Pseudomonas aeruginosa [16] = assay: Antibiofilm activity against Pseudomonas aeruginosa PA01 (CIP 104116) assessed as inhibition of biofilm formation at 5 mM measured after 2 to 24 hrs relative to control; format: functional; parameters: scale not given: the % may be the effect or the level left; settings: time 2-24 hrs

| SMILES | Kd [1] [µM] | deltaG [2] [kcal/mol] | deltaH [3] [kcal/mol] | TdeltaS [4] [kcal/mol] | also measured |
| --- | --- | --- | --- | --- | --- |
| CC(C)c1ccc(S[C@@H]2O[C@H](CO)[C@H](O)[C@H](O)[C@H]2O)cc1 | 2.45 | -7.65 | -11.9 | -4.28 |  |
| C=C(c1ccc(OC)cc1)c1ccc(S[C@@H]2O[C@H](CO)[C@H](O)[C@H](O)[C@H]2O)cc1 | 3 | -7.55 | -11.1 | -3.59 |  |
| CC(C)(C)c1cc2c(OCc3cn(CCOCCOCCO[C@@H]4O[C@H](CO)[C@H](O)[C@H](O)[C@H]4O)nn3)c(c1)Cc1cc(C(C)(C)C)cc(c1OCc1cn(CCOCCOCCO[C@@H]3O[C@H](CO)[C@H](O)[C@H](O)[C@H]3O)nn1)Cc1cc(C(C)(C)C)cc(c1OCc1cn(CCOCCOCCO[C@@H]3O[C@H](CO)[C@H](O)[C@H](O)[C@H]3O)nn1)Cc1cc(C(C)(C)C)cc(c1OCc1cn(CCOCCOCCO[C@@H]3O[C@H](CO)[C@H](O)[C@H](O)[C@H]3O)nn1)C2 |  |  |  |  | Kd [5]: 0.176 µM |
| C=C(c1ccc(S[C@@H]2O[C@H](CO)[C@H](O)[C@H](O)[C@H]2O)cc1)c1ccc2ccccc2c1 | 9 | -6.88 | -8.41 | -1.53 |  |
| COc1ccc(C(=O)c2cc(OC)c(OC)c(OC)c2)cc1S[C@@H]1O[C@H](CO)[C@H](O)[C@H](O)[C@H]1O | 1.02 | -8.17 | -13 | -4.85 | viability (MRC5 [6]): 41.1%; MBC (Pseudomonas aeruginosa [7]): > 5 mM; Activity (MRC5 [8]): Non-Toxic; Activity (Pseudomonas aeruginosa [9]): 100%; MIC (Pseudomonas aeruginosa [10]): > 5 mM; viability (MRC5 [11]): 61.5%; Activity (Pseudomonas aeruginosa [12]): Dose-Dependent Effect; viability (MRC5 [13]): 7.1% |
| O=Cc1ccc(S[C@@H]2O[C@H](CO)[C@H](O)[C@H](O)[C@H]2O)cc1 | 9.2 | -6.86 | -9.85 | -2.99 |  |
| CC(C)S[C@@H]1O[C@H](CO)[C@H](O)[C@H](O)[C@H]1O |  |  |  |  | Kd [14]: 32.4 µM |
| C=C(c1cc(OC)c(OC)c(OC)c1)c1ccc(OC)c(S[C@@H]2O[C@H](CO)[C@H](O)[C@H](O)[C@H]2OC(C)=O)c1 | 6.9 | -7.03 | -8.6 | -1.58 |  |
| Cc1cc(=O)oc2cc(S[C@@H]3O[C@H](CO)[C@H](O)[C@H](O)[C@H]3O)ccc12 |  |  |  |  | Kd [14]: 5.4 µM |
| OC[C@H]1O[C@@H](OCc2cn([C@@H]3[C@H](O)[C@@H](O)[C@H](c4cn([C@H]5[C@H](O)[C@@H](O)[C@H](n6cc([C@@H]7O[C@H](CO)[C@@H](n8cc(CO[C@@H]9O[C@H](CO)[C@H](O)[C@H](O)[C@H]9O)nn8)[C@H](O)[C@H]7O)nn6)O[C@@H]5CO)nn4)O[C@@H]3CO)nn2)[C@H](O)[C@@H](O)[C@H]1O |  |  |  |  | Kd [14]: 0.028 µM |
| COc1ccc(S[C@@H]2O[C@H](CO)[C@H](O)[C@H](O)[C@H]2O)cc1 | 11.9 | -6.72 | -10.1 | -3.39 |  |
| C=C(c1ccc(S[C@@H]2O[C@H](CO)[C@H](O)[C@H](O)[C@H]2O)cc1)c1cccc(S[C@H]2O[C@@H](CO)[C@@H](O)[C@@H](O)[C@@H]2O)c1 (single isomer, unassigned) | 0.16 | -9.25 | -21.6 | -12.3 | log(activity) (Pseudomonas aeruginosa [15]): 1; viability (MRC5 [6]): 65.1%; MBC (Pseudomonas aeruginosa [7]): > 5 mM; Activity (MRC5 [8]): Non-Toxic; MIC (Pseudomonas aeruginosa [10]): > 5 mM; viability (MRC5 [11]): 91.4%; Activity (Pseudomonas aeruginosa [16]): 90%; viability (MRC5 [13]): 5.2% |
| C=C(c1ccc(OC)cc1)c1cccc(S[C@@H]2O[C@H](CO)[C@H](O)[C@H](O)[C@H]2O)c1 | 8.1 | -6.96 | -11.1 | -4.13 |  |
